# Test results taken from publication PMC6395927, “Rufomycin Targets ClpC1 Proteolysis in Mycobacterium tuberculosis and M. abscessus” (Antimicrobial Agents and Chemotherapy, 2019).
# “Also recorded” adds a separate entry of the source. Where two headings read alike, the source gives them in different places.
# Experiments:
# [1] = test system: M. marinum (ATCC 927); assay: microbe, parasite or virus in culture; type: cell-based; settings: Mycobacterium marinum, ATCC927; M. marinum; read-out: MIC
# [2] = test system: M. chelonae (ATCC 35752); assay: microbe, parasite or virus in culture; type: cell-based, Mycobacterium chelonae; settings: Mycobacteroides chelonae, ATCC35752; M. chelonae; read-out: MIC
# [3] = test system: M. avium (ATCC 15769); assay: microbe, parasite or virus in culture; type: cell-based; settings: Mycobacterium avium, ATCC15769; M. avium; read-out: MIC
# [4] = test system: M. abscessus (ATCC 19977); assay: microbe, parasite or virus in culture; type: cell-based, Mycobacterium abscessus; settings: read-out: MIC
# [5] = in vivo; design: species or system BALB/c mice; settings: mice, single i.v. 5 mg/kg
# Procedure: Healthy female BALB/c mice were administered a single dose (5 mg/kg) of RUFI intravenously (i.v.; tail vein). RUFI was formulated using 10% ethanol (EtOH), 40% 10% (2-hydroxypropyl)-β-cyclodextrin (HP-β-CD) solution, and 50% PEG 400. RUFI was first dissolved in 0.102 ml of EtOH, vortexed and sonicated until clear, and then diluted with 0.508 ml of PEG 400 with additional vortex treatment and sonication until clear. Finally, 0.406 ml of 10% HP-β-CD was added to the solution. Then 20 μl of this formulation was pipetted into a 10-ml volumetric flask, and methanol (MeOH) was added to a final concentration of 1 mg/ml. The accuracy of the formulation concentration was verified via high-performance liquid chromatography-tandem mass spectrometry (HPLC-MS/MS) (AB Sciex 6500+; SCIEX, Framingham, MA) by electrospray using multiple reaction monitoring (MRM; 1065.63/1047.70) in positive ion mode. LC was performed with a Kinetex EVO C18 column (50 mm by 3.00 mm [inside diameter], 2.6-μm particle size, 100-Å pore size) using a gradient of 0.1% formic acid (FA) in water–0.1% FA in acetonitrile (ACN) (25% ACN to 95% ACN in 1.5 min) at a flow rate of 0.8 ml/min.
# Blood samples (10 μl) were collected via saphenous vein puncture at 5, 15, and 30 min and 1, 2, 4, 8, and 25 h. […] A standard curve was determined by using RUFI spiked into untreated mouse plasma.
# [6] = target: ClpC1/P1/P2 complex (Mycobacterium tuberculosis, UniProt P9WPC9); type: biochemical, M. tuberculosis
# ClpC1/P1/P2 complex, sequence (P9WPC9 whole entry, one chain of several): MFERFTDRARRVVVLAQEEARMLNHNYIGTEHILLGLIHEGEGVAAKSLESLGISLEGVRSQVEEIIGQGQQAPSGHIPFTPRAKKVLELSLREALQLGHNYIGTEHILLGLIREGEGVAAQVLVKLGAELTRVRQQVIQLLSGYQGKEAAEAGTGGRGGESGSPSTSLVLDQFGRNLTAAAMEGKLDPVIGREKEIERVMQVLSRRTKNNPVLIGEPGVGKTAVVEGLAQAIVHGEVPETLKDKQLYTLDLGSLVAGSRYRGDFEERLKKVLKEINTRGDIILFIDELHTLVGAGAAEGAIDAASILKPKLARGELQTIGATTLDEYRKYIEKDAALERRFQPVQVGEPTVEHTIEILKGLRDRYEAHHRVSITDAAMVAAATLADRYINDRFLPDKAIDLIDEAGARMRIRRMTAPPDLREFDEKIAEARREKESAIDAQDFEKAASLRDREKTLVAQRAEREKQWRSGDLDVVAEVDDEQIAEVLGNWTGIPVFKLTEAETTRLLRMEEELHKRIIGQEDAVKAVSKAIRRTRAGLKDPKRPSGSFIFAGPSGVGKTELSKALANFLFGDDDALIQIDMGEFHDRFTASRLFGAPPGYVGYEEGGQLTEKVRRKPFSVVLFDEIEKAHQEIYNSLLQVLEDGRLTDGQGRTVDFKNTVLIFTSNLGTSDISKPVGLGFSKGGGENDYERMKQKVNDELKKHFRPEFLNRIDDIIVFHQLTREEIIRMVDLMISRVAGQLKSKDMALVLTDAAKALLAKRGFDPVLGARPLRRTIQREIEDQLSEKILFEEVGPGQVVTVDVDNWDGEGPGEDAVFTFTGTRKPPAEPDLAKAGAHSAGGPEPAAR
# [7] = test system: M. smegmatis (ATCC 700084); assay: microbe, parasite or virus in culture; type: cell-based; settings: Mycolicibacterium smegmatis, ATCC700084; M. smegmatis; read-out: MIC
# [8] = test system: Staphylococcus aureus (ATCC 29213); assay: MIC against nonmycobacteria (OD570); type: cell-based; settings: ATCC29213, S. aureus
# Source text: (§1) Standard compounds used were ampicillin (AMP) and gentamicin (GEN). […] Amphotericin B (AmphB) and ketoconazole (KETO) were used as standard compounds.
# [9] = test system: Escherichia coli (ATCC 25922); assay: MIC against nonmycobacteria (OD570); type: cell-based; settings: ATCC25922, E. coli
# Source text: as §1
# [10] = test system: Candida albicans (ATCC 10231); assay: MIC against nonmycobacteria (OD570); type: cell-based; settings: ATCC10231, C. albicans
# Source text: as §1
# [11] = test system: nonreplicating cultures of M. tuberculosis; assay: microbe, parasite or virus in culture; type: cell-based, Mycobacterium tuberculosis
# [12] = test system: M. tuberculosis; assay: microbe, parasite or virus in culture; type: cell-based, Mycobacterium tuberculosis
# [13] = test system: M. abscessus in bone marrow-derived macrophages; assay: Intracellular survival assay in BMDMs; type: cell-based, Mycobacterium abscessus; settings: 2 days, 5 and 10 μM
# Procedure: Bone marrow-derived macrophages (BMDMs) were isolated from the femurs and tibias of C57BL/6 mice (5 to 6 weeks old) and differentiated by culturing for 4 days in DMEM containing 10% (vol/vol) FBS and 25 ng/ml of macrophage colony-stimulating factor (M-CSF; R&D, Minneapolis, MN). The final densities of differentiated BMDMs were 1 × 10^5 to 3 × 10^5 per well in 48-well plates. Cells were infected for 2 h with M. abscessus at a multiplicity of infection (MOI) of 5. Next cells were washed with PBS and incubated in DMEM containing 50 μg/ml of gentamicin (Sigma-Aldrich). RUFI and clarithromycin (CLR) were added to the media to achieve final concentrations of 5 and 10 μM, respectively, and then the cultures were incubated for 2 days. The supernatant was removed, and cells were lysed in sterile distilled water for 30 min at 37°C. Cell lysates were serially diluted, plated on 7H10 agar, and incubated at 37°C for 2 to 3 days for enumeration of CFU.
# [14] = test system: M. bovis (ATCC 35734); assay: microbe, parasite or virus in culture; type: cell-based; settings: Mycobacterium tuberculosis variant bovis, ATCC35734
# [15] = target: ClpC1 (Mycobacterium tuberculosis, UniProt P9WPC9); type: biochemical, M. tuberculosis
# ClpC1, sequence (P9WPC9 whole entry): as the sequence (P9WPC9 whole entry, one chain of several) above
# [16] = test system: M. tuberculosis 5 global clade representatives; assay: microbe, parasite or virus in culture; type: cell-based; settings: Mycobacterium tuberculosis, read-out: MICs
compound,measurement,setting,value
"C/C=C/C[C@@H]1NC(=O)[C@H](CC(C)C)N2C(=O)C(C[C@H](C)[C@H]2O)N(C)C(=O)[C@H](C)NC(=O)[C@H](Cc2ccc(O)c([N+](=O)[O-])c2)NC(=O)[C@H](CC(C)C)N(C)C(=O)[C@H](Cc2cn(C(C)(C)C3CO3)c3ccccc23)NC1=O (stereo partly drawn) [RUFI, rufomycin I]",MIC,[1],< 0.02 µM
same,MIC,[2],4.24 µM
same,MIC,[3],1.75 µM
same,MIC,[4]; M. abscessus,0.42 µM
same,MIC,"[4]; Mycobacteroides abscessus, ATCC19977, M. abscessus",0.4 µM
same,half-life,"[5]; female, BALB/c, mouse, in vivo, iv, plasma, mean n = 3, read-out: terminal half-life (converted)",1 h
same,clinical abnormalities,[5],no clinical abnormalities observed
same,effect on proteolytic activity of ClpC1/P1/P2 (FITC-casein degradation),[6],significantly decreased the proteolytic capabilities; also recorded: strongly inhibited
same,MIC,[7],0.073 µM
same,MIC,[8],> 10 µM
same,MIC,[9],> 10 µM
same,MIC,[10],> 10 µM
same,MBC,[11],lacks this activity
same,MIC,[11]; Mycobacterium tuberculosis,> 10 µM
same,inhibition at 10 µM,[11]; Mycobacterium tuberculosis,75%
same,MBC (minimum bactericidal concentration),[12],0.40 µM
same,MBC,"[12]; Mycobacterium tuberculosis, read-out: MBC (minimum bactericidal concentration)",0.4 µM
same,activity against M. abscessus in BMDMs (CFU),[13],as effective as clarithromycin
same,MIC,[14],< 0.02 µM
same,effect on ClpC1 ATPase activity,[15],no significant effect; also recorded: mild and insignificant inhibitory effect
same,MIC,[16],0.003 to 0.011 µM
